ChEMBL document CHEMBL3997846, “Synthesis and activity of nucleoside-based antiprotozoan compounds” (Bioorg Med Chem, 2017)

Columns and labels:
[1] = tested on: Trypanosoma brucei rhodesiense; test: Antitrypanosomal activity against bloodstream forms of Trypanosoma brucei rhodesiense STIB900 trypomastigotes after 72 hrs by alamar blue assay; type: functional; conditions: STIB900, 72 h
L6 = test: Cytotoxicity against rat L6 cells assessed as growth inhibition after 72 hrs by alamar blue assay; type: cell-based; conditions: L6, 72 h
[2] = Selectivity index, ratio of IC50 for rat L6 cells to IC50 for bloodstream forms of Trypanosoma brucei rhodesiense STIB900 trypomastigotes; type: toxicity; conditions: read-out: Ratio IC50
Trypanosoma cruzi = test: Antitrypanosomal activity against Trypanosoma cruzi Tulahuen strain C2C4 amastigote forms harboring LacZ infected in rat L6 cells after 96 hrs by CPRG/Nonidet reagent based photometric method; type: functional, cell-based; conditions: Tulahuen strain C2C4, L6, 96 h
[3] = Selectivity index, ratio of IC50 for rat L6 cells to IC50 for Trypanosoma cruzi Tulahuen strain C2C4 amastigote forms harboring LacZ infected in rat L6 cells; type: toxicity, cell-based; conditions: read-out: Ratio IC50
Leishmania donovani = test: Antileishmanial activity against Leishmania donovani MHOM/SD/62/ISCL2D axenic amastigotes after 72 hrs by alamar blue assay; type: functional
[4] = Selectivity index, ratio of IC50 for rat L6 cells to IC50 for Leishmania donovani MHOM/SD/62/ISCL2D axenic amastigotes; type: toxicity; conditions: read-out: Ratio IC50
Plasmodium falciparum = test: Antiplasmodial activity against chloroquine resistant Plasmodium falciparum K1 erythrocytic stage assessed as reduction in [3H]hypoxanthine incorporation after 48 hrs by liquid scintillation counting assay; type: functional
[5] = Selectivity index, ratio of IC50 for rat L6 cells to IC50 for chloroquine resistant Plasmodium falciparum K1 erythrocytic stage; type: toxicity; conditions: read-out: Ratio IC50

Compound | IC50 [1] | IC50 (L6) | selectivity ratio [2] | IC50 (Trypanosoma cruzi) | selectivity ratio [3] | IC50 (Leishmania donovani) | selectivity ratio [4] | IC50 (Plasmodium falciparum) | selectivity ratio [5]
CC(=O)O[C@@H]1[C@H](OC(C)=O)[C@@H](CI)O[C@H]1n1cnc2c(N)nc(F)nc21 | 15 µM | 6.3 µM | 0.4 | 14 µM | 0.4 | 9.2 µM | 0.7 | 1.1 µM | 6
Nc1nc(Cl)c2ccn([C@@H]3O[C@H](CO)[C@@H](O)[C@H]3O)c2n1 | 0.13 µM | 163 µM | 1250 | 3.4 µM | 48 | 0.06 µM | 2720 | 68 µM | 2
CNc1nc(N)nc2c1ncn2[C@@H]1O[C@H](C)[C@@H](O)[C@H]1O | 127 µM | 211 µM | 2 | 15 µM | 14 | 326 µM | 0.6 | 19 µM | 11
COc1nc(I)nc2c1ncn2[C@@H]1O[C@H](C)[C@@H](O)[C@H]1O | 108 µM | 158 µM | 2 | 113 µM | 1 | 126 µM | 1 | 65 µM | 2
Nc1nc([Se][Se]c2nc(N)nc3c2ccn3[C@@H]2O[C@H](CO)[C@@H](O)[C@H]2O)c2ccn([C@@H]3O[C@H](CO)[C@@H](O)[C@H]3O)c2n1 | 9.6 µM | 24 µM | 3 | 21 µM | 1 | > 145 µM | < 0.2 | 20.5 µM | 1
CC(=O)NC[C@H]1O[C@@H](n2cnc3c(N)nc(Cl)nc32)[C@H](O)[C@@H]1O | 79 µM | 189 µM | 2 | 174 µM | 1 | > 280 µM | < 0.7 | 88 µM | 2
CC(=O)O[C@@H]1[C@H](OC(C)=O)[C@@H](CI)O[C@H]1n1cnc2c(N)nc(Cl)nc21 | 12 µM | 86 µM | 7 | 10 µM | 9 | 15 µM | 6 | 3.9 µM | 22
[N-]=[N+]=NC[C@H]1O[C@@H](n2cnc3c(N)nc(F)nc32)[C@H](O)[C@@H]1O | 22 µM | 3.1 µM | 0.1 | 13 µM | 0.2 | 1 µM | 3 | 0.89 µM | 3
CNc1nc(N)nc2c1ncn2[C@@H]1O[C@H](CSC)[C@@H](O)[C@H]1O | 290 µM | 165 µM | 0.6 | 22 µM | 8 | > 318 µM | 0.5 | 29 µM | 6
[N-]=[N+]=NC[C@H]1O[C@@H](n2cnc3c(N)nc(Cl)nc32)[C@H](O)[C@@H]1O | 56 µM | 155 µM | 3 | 76 µM | 2 | 193 µM | 0.8 | 9.8 µM | 16
CC(=O)NC[C@H]1O[C@@H](n2cnc3c(N)nc(Cl)nc32)[C@H](OC(C)=O)[C@@H]1OC(C)=O | 113 µM | 190 µM | 2 | 125 µM | 2 | > 230 µM | < 0.8 | 102 µM | 2
CNc1nc(NC)c2ncn([C@@H]3O[C@H](C)[C@@H](O)[C@H]3O)c2n1 | > 340 µM | 187 µM | < 0.6 | 109 µM | 2 | > 340 µM | < 0.6 | > 170 µM | < 1
Nc1nc2c(ccn2[C@@H]2O[C@H](CO)[C@@H](O)[C@H]2O)c(=S)[nH]1 | 61 µM | 185 µM | 3 | 71 µM | 3 | > 335 µM | < 0.6 | > 168 µM | < 1
CC(=O)O[C@@H]1[C@H](OC(C)=O)[C@@H](CN2C(=O)c3ccccc3C2=O)O[C@H]1n1cnc2c(N)nc(F)nc21 | 160 µM | 129 µM | 0.8 | 103 µM | 1 | > 200 µM | < 0.6 | 45 µM | 3
CNc1nc(Cl)c2ncn([C@@H]3O[C@H](C)[C@@H](O)[C@H]3O)c2n1 | 230 µM | 175 µM | 0.8 | 35 µM | 5 | > 335 µM | < 0.5 | 150 µM | 1
CC(=O)NC[C@H]1O[C@@H](n2cnc3c(N)nc(F)nc32)[C@H](O)[C@@H]1O | > 300 µM | 182 µM | < 0.6 | 178 µM | 1 | 117 µM | 2 | 19 µM | 10
CC(=O)O[C@@H]1[C@H](OC(C)=O)[C@@H](CN2C(=O)c3ccccc3C2=O)O[C@H]1n1cnc2c(N)nc(Cl)nc21 | 161 µM | 144 µM | 0.9 | 101 µM | 1 | 139 µM | 1 | 23 µM | 6
CC(=O)NC[C@H]1O[C@@H](n2cnc3c(N)nc(F)nc32)[C@H](OC(C)=O)[C@@H]1OC(C)=O | 115 µM | 138 µM | 1 | 106 µM | 1 | > 240 µM | < 0.6 | 37 µM | 4
